{"source": "patent US20240398836A1", "about": "“EPOXY STEROIDS” (priority 2021, published 2024)", "key": {"[1]": {"tested_on": "Nalm-6 cells", "assay": "Synergistic apoptosis induction with cytarabin or vincristine", "assay_type": "cell-based", "procedure": "The experiments were performed in triplicate. The error bars show the standard deviations of the measured values of three independent experiments."}, "[2]": {"assay": "Tolerability (dose escalation, MTD) in an animal model", "assay_type": "in vivo, NOG-F (Taconic) mice", "procedure": "An incremental increase of dose of the three substances Wil-071, Wil-232 and Wil-369 was performed in 8-week-old female NOG-F (Taconic) mice. Different mice were administered one of up to seven different doses of the test substances. The start was on day 1 with the lowest dose of 10 mg/kg. […] All in all, if possible, the doses 10, 20, 40, 80, 100, 150 and 200 mg/kg are tested. Subsequently, the maximum tolerable dose (MTD) was administered to three more animals, and these were subsequently observed for one week, in order to be able to observe any developing symptoms. For this purpose, the animals were observed and weighed on a daily basis. The body weight is considered an indicator of the general condition of the animals.\nFor the MTD experiment, Wil-071 was dissolved in 100% DMSO, and then diluted 1:50 with a 20% (w/v) 2-hydroxypropyl-beta-cyclodextrin (HPβCD) solution. Thus, 200 μL of injection solution (per mouse) of a 40 mg/kg dose could be achieved. For 80, 100 and 150 mg/kg, the DMSO proportion was increased to up to 4% (v/v) in the final injection solution. In addition, ultrasound had to be employed, and the sample had to be heated at 60° C. for up to 45 min. 200 mg/kg was reached only as a milky suspension. […] Therefore, Wil-071 can be considered non-toxic up to 150 mg/kg. The final MTD could not be determined because of the insufficient solubility.\nFor 100 mg/kg of Wil-232, the end concentration of DMSO in the injection solution was 2%. In order to dissolve Wil-232, the sample also had to be treated with ultrasound, and heated at 60° C. The dose of 150 mg/kg was achieved only with 4% DMSO, and 200 mg/kg was achieved only as a suspension. […] Otherwise, there were no signs of toxicity, so that the substance can be considered tolerable up to 150 mg/kg. In this case too, a final MTD cannot be determined because of insufficient solubility.\nUsing a DMSO stock and 20% HPβCD solution, a maximum of only 5 mg/ml was dissolved. A further increase could not be achieved even with more DMSO or HPβCD. Thus, above the dose of 40 mg/kg, a higher injection volume was injected in order to reach the corresponding dose. […] For the tolerability under the current solubility conditions, a value of […] is to be applied. This dose was injected into the 8 animals for pharmacokinetics. In this case too, a final MTD cannot be determined because of insufficient solubility."}, "[3]": {"tested_on": "neuroblastoma cells (SKNAS cells), LiOn cells", "assay": "Apoptosis in cytostatics-resistant solid tumor cells", "assay_type": "cell-based", "details": "SKNAS cells and cisplatin-resistant LiOn cells (caspase-8 underexpression)", "procedure": "In contrast to conventional glucocorticoids, the steroid WIL 071 can induce apoptosis also in solid tumor cells.\nThe DNA fragmentation was measured by flow cytometry), see FIG. 8. The experiments were performed in triplicate. The error bars show the standard deviations of the measured values of three independent experiments."}}}
{"smiles": "CC(C)CCC[C@@H](C)[C@H]1CC[C@H]2[C@@H]3[C@H]4OC[C@@]5(CC[C@H](O)C[C@]5(O)C4=O)[C@H]3CC[C@]12C", "note": "[WIL-071, 3β,5α-dihydroxy-7β,19-epoxy-cholestan-6-one]", "values": [{"measurement": "synergistic effect on apoptosis with cytarabin", "setting": "[1]; Nalm-6, parallel treatment with cytarabin", "value": "synergistic effects"}, {"measurement": "synergistic effect on apoptosis with vincristine", "setting": "[1]; Nalm-6, parallel treatment with vincristine", "value": "synergistic effects"}, {"measurement": "outcome of injection of the 200 mg/kg suspension", "setting": "[2]; 200 mg/kg as suspension, signs of pulmonary embolism in section", "value": "immediate death of the animal"}, {"measurement": "dose up to which non-toxic / tolerable", "setting": "[2]; injection into caudal vein, mice, final MTD not determinable because of solubility", "value": "up to 150 mg/kg"}, {"measurement": "apoptosis induction / overcoming of cytostatics resistance", "setting": "[3]", "value": "Resistances towards cytostatics are overcome"}]}
